Here are results for nine compounds from publication PMC6384781, “Design, Synthesis, Docking Studies and Monoamine Oxidase Inhibition of a Small Library of 1-acetyl- and 1-thiocarbamoyl-3,5-diphenyl-4,5-dihydro-(1H)-pyrazoles” (Molecules, 2019).

The target in one series is T1, hMAO-A (Homo sapiens, UniProt P21397).
T1 construct: purchased Sigma-Aldrich; host or cells: insect cells (microsomes)
T1 sequence (P21397 1-527): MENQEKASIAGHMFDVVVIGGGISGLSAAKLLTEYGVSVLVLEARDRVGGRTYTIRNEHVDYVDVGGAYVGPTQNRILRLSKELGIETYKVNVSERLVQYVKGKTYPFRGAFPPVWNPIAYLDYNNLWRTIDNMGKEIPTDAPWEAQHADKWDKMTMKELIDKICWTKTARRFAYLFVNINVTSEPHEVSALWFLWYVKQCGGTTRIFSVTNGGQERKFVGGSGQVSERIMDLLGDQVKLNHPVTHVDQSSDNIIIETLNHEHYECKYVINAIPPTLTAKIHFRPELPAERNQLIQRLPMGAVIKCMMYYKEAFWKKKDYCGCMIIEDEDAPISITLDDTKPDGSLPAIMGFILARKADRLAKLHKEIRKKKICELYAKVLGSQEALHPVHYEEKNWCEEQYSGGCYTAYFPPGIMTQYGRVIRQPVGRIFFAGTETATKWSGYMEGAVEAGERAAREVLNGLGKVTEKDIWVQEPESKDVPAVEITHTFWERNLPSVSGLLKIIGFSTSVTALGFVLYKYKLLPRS
The experiment in a line: hMAO-A inhibition, Amplex Red fluorometric assay with kynuramine substrate. It counts as biochemical. To be noted: for IC50 / IC50 hMAO-A: recombinant hMAO-A, kynuramine 50 µM, mean ± SD of triplicate, max tested 100 µM. On the procedure:
(§1) The synthesized compounds P1–P18 were evaluated as hMAO inhibitors using the recombinant hMAOs as enzyme sources and kynuramine as substrate. A fluorometric method based on the Amplex® Red reagent (λex = 560 nm; λem = 590 nm) was used to measure hMAO activity. In this horseradish peroxidase-linked assay, Amplex® Red reacts with hydrogen peroxide that is produced by the MAO catalytic cycle to yield a fluorescent product, resorufin [28]. By thus recording the MAO-catalyzed formation of hydrogen peroxide in the presence of different concentrations of a test inhibitor, sigmoidal plots of enzyme activity versus the logarithm of inhibitor concentration were constructed from which IC50 values were estimated (GraphPad Prism 5). All IC50 values were measured in triplicate and are expressed as the mean ± standard deviation (SD). The inhibitory activities of compounds P1–P18 are summarized in Table 1 along with selectivity index (SI) values which are the ratio of IC50(hMAO-A)/IC50(hMAO-B). SI < 1 indicates selectivity for MAO-A, whereas SI > 1 indicates selectivity for the MAO-B isoform.
(§2) Microsomes from insect cells expressing recombinant hMAO-A or hMAO-B (5 mg protein/mL) served as enzyme sources, and were pre-aliquoted and stored at −70 °C. All enzymatic reactions were carried out to a final volume of 200 µL in black 96-well microtiter plates (Corning). Potassium phosphate buffer (100 mM, pH 7.4, made isotonic with KCl) served as reaction solvent. The reactions contained kynuramine (50 µM), various concentrations of the test inhibitor (0.003–100 μM), horseradish peroxidase (1 unit/mL) and Amplex® Red (200 µM). Stock solutions of the test inhibitors were prepared in DMSO and added to the reactions to yield a final concentration of 4% (v/v) DMSO. The reactions were initiated with the addition of hMAO-A (0.0075 mg protein/mL) or hMAO-B (0.015 mg protein/mL), and incubated at 37 °C for 20 min in a convection oven. At endpoint, the reactions were terminated with the addition of 10 μL pargyline (20 mM) and 10 μL (R)-deprenyl (5 mM) for hMAO-A and hMAO-B, respectively. The concentrations of resorufin in the reactions were determined by fluorescence spectrophotometry (λex = 560 nm, λem = 590 nm). Resorufin was quantitated with a linear calibration curve, which was constructed from standard solutions containing hydrogen peroxide (0.05–1.6 µM). Each standard was prepared to a final volume of 200 μL in potassium phosphate buffer and also contained horseradish peroxidase (1 unit/mL), Amplex® Red (200 µM), 4% DMSO as co-solvent, 10 μL pargyline (20 mM) for hMAO-A and 10 μL (R)-deprenyl (5 mM) for hMAO-B. The IC50 values were determined by constructing sigmoidal curves of MAO catalytic activity versus the logarithm of inhibitor concentration. For this purpose, the one site competition model incorporated into the Prism 5 software package (GraphPad, San Diego, CA, USA) was used. All experiments were carried out in triplicate and the IC50 values are expressed as mean ± standard deviation (SD).

The next series has as its target T2, hMAO-B (Homo sapiens, UniProt P27338).
T2 construct: purchased Sigma-Aldrich; host or cells: insect cells (microsomes)
T2 sequence (P27338 1-520): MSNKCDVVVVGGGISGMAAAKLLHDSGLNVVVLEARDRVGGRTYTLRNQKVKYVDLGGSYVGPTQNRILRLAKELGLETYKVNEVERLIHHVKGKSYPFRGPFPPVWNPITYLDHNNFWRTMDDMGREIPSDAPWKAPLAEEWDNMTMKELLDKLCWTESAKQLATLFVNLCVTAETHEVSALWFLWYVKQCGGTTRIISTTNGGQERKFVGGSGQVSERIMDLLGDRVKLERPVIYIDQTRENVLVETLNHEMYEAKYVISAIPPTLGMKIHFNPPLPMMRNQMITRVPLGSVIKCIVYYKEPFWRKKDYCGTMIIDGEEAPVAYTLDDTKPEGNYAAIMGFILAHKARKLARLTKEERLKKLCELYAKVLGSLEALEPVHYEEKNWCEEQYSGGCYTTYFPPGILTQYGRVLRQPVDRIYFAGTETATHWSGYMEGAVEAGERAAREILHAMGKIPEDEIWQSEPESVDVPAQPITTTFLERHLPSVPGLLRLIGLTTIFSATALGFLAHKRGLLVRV
In words: hMAO-B inhibition, Amplex Red fluorometric assay with kynuramine substrate. The class given is biochemical. To be noted: for SI (selectivity index for the hMAO-B isoform): ratio IC50(hMAO-A)/IC50(hMAO-B), SI > 1 = MAO-B selective; for IC50 / IC50 hMAO-B: recombinant hMAO-B, kynuramine 50 µM, mean ± SD of triplicate, max tested 100 µM. How it is done: as §1, §2

A word on the IC50: it is the concentration at which inhibition is half-maximal. By melting point is commonly meant the temperature of the solid-liquid transition. `C=CCOc1ccc(C2=NN(C(C)=O)C(c3ccccc3)C2)cc1` (stereo not shown) [Compound P7, 1-(3-(4-(allyloxy)phenyl)-5-phenyl-4,5-dihydro-1H-pyrazol-1-yl)ethan-1-one] registered a melting point of 95 to 98 °C. Moreover, the IC50 on hMAO-A was 39.3 ± 5.94 µM. At hMAO-B, the “SI (selectivity index for the hMAO-B isoform)” value is recorded as 2.72 and the concentration for half-maximal inhibition (IC50) turned out to be 14.5 ± 2.78 µM.
On to `CC(=O)N1N=C(c2ccc(OCC=C(C)C)cc2)CC1c1ccccc1C` (stereo not shown) [Compound P9, 1-(3-(4-((3-methylbut-2-en-1-yl)oxy)phenyl)-5-(o-tolyl)-4,5-dihydro-1H-pyrazol-1-yl)ethan-1-one], for which the melting point lay in the range of 110 to 112 °C. The “fold higher inhibitory activity for hMAO-A than for hMAO-B” value on hMAO-A (hMAO-A versus hMAO-B) worked out at 3 fold. The IC50 on hMAO-A is 9.13 ± 0.34 µM. Moreover, at hMAO-B, the “SI (selectivity index for the hMAO-B isoform)” value came out at 0.33 and the IC50 was determined as 27.3 ± 0.57 µM.
`CC(=O)N1N=C(c2ccc(OCC=C(C)C)cc2)CC1c1cccc(C)c1` (stereo not shown) [Compound P10, 1-(3-(4-((3-methylbut-2-en-1-yl)oxy)phenyl)-5-(m-tolyl)-4,5-dihydro-1H-pyrazol-1-yl)ethan-1-one] registered a melting point of 120 to 122 °C. Moreover, the 50% inhibitory concentration (IC50) at hMAO-A was found to be 86.8 ± 14.7 µM. Moreover, on hMAO-B, the “SI (selectivity index for the hMAO-B isoform)” value is reported as 26.96 and the 50% inhibitory concentration (IC50) was 3.22 ± 0.48 µM.
`CC(=O)N1N=C(c2ccc(OCC=C(C)C)cc2)CC1c1ccc(C)cc1C` (stereo not shown) [Compound P12, 1-(5-(2,4-dimethylphenyl)-3-(4-((3-methylbut-2-en-1-yl)oxy)phenyl)-4,5-dihydro-1H-pyrazol-1-yl)ethan-1-one] returned a melting point of 117 to 119 °C. Besides, the IC50 at hMAO-A was 80.6 ± 10 µM. Besides, on hMAO-B, the “SI (selectivity index for the hMAO-B isoform)” value was below 0.81 and the half-maximal inhibitory concentration (IC50) was above 100 µM.
`CC(=O)N1N=C(c2ccc(OCC=C(C)C)cc2)CC1c1ccccc1Cl` (stereo not shown) [Compound P13, 1-(5-(2-chlorophenyl)-3-(4-((3-methylbut-2-en-1-yl)oxy)phenyl)-4,5-dihydro-1H-pyrazol-1-yl)ethan-1-one] displayed a melting point of 131 to 134 °C. For the same compound, the half-maximal inhibitory concentration (IC50) at hMAO-A turned out to be 5.74 ± 1.66 µM. At hMAO-B, the “SI (selectivity index for the hMAO-B isoform)” value was determined as 1.85 and the IC50 was found to be 3.11 ± 0.66 µM.
Take `CC(=O)N1N=C(c2ccc(OCC=C(C)C)cc2)CC1c1cccc(Cl)c1` (stereo not shown) [Compound P14, 1-(5-(3-chlorophenyl)-3-(4-((3-methylbut-2-en-1-yl)oxy)phenyl)-4,5-dihydro-1H-pyrazol-1-yl)ethan-1-one]: the melting point is 85 to 88 °C. For the same compound, on hMAO-A, the IC50 came out at 4.13 ± 0.26 µM. Further, at hMAO-B, the “SI (selectivity index for the hMAO-B isoform)” value was 3.82 and the concentration for half-maximal inhibition (IC50) was 1.08 ± 0.05 µM.
Compound `CC(=O)N1N=C(c2ccc(OCC=C(C)C)cc2)CC1c1ccc(Cl)cc1Cl` (stereo not shown) [Compound P16, 1-(5-(2,4-dichlorophenyl)-3-(4-((3-methylbut-2-en-1-yl)oxy)phenyl)-4,5-dihydro-1H-pyrazol-1-yl)ethan-1-one] displayed a melting point of 128 to 130 °C. For the same compound, on hMAO-A, the IC50 was above 100 µM and the “IC50 hMAO-A” value is reported as “did not inhibit”. In addition, at hMAO-B, the concentration for half-maximal inhibition (IC50) is above 100 µM and the “IC50 hMAO-B” value is listed as “did not inhibit”.
`CC(=O)N1N=C(c2ccc(OCC=C(C)C)cc2)CC1c1ccc(-c2ccccc2)cc1` (stereo not shown) [Compound P17]: the melting point lay in the range of 132 to 135 °C. Besides, on hMAO-A, the half-inhibitory concentration (IC50) was above 100 µM and the “IC50 hMAO-A” value is “devoid of inhibition activity”. At hMAO-B, the IC50 is above 100 µM and the “IC50 hMAO-B” value is “devoid of inhibition activity”.
Consider `CC(=O)N1N=C(c2ccc(OCC=C(C)C)cc2)CC1c1cccc2ccccc12` (stereo not shown) [Compound P18, 1-(3-(4-((3-methylbut-2-en-1-yl)oxy)phenyl)-5-(naphthalen-1-yl)-4,5-dihydro-1H-pyrazol-1-yl)ethan-1-one], for which the melting point is 78 to 80 °C. Further, at hMAO-A, the IC50 is above 100 µM and the “IC50 hMAO-A” value is listed as “devoid of inhibition activity”. On hMAO-B, the 50% inhibitory concentration (IC50) was above 100 µM and the “IC50 hMAO-B” value is recorded as “devoid of inhibition activity”.
